Here are results for 23 compounds from patent US20060030609A1, “Oxazolidinones containing oxindoles as antibacterial agents” (priority 2004, published 2006).

Values after ≈ are worked out from the molar mass of the structure shown.

Holding throughout (assay): in vitro antibacterial activity (MIC, NCCLS dilution)
Holding throughout (assay type): cell-based

For one assay, the system named is E.faecalis MGH-2 EF 1-1. The conditions noted are these: Enterococcus faecalis, MGH2EF11. An excerpt: (§1) The in vitro antibacterial activity of the compounds of the present invention may be assessed by following procedures recommended in (1) National Committee for Clinical Laboratory Standards (January 2003), Methods for dilution antimicrobial tests for bacteria that grow aerobically, Approved Standard (6th ed), M7-A6, NCCLS, Wayne, Pa.; (2) National Committee for Clinical Laboratory Standards (March 2001), Method for antimicrobial susceptibility testing of anaerobic bacteria, Approved Standard (5th ed), M11-A4, NCCLS, Wayne, Pa.; (3) National Committee for Clinical Laboratory Standards (January 2003), MIC testing supplemental tables, M100-S13 (for use with M7-A6), NCCLS, Wayne, Pa.; and (4) Murray P R, Baron E J, Jorgensen J H, et al. Manual of Clinical Microbiology (8th ed) Washington, D.C.: American Society for Microbiology Press, 2003. The MJC value is the lowest concentration of drug which prevented macroscopically visible growth under the conditions of the test.

For another assay, the system named is S. pneumoniae SV1 SP-3. The conditions noted are these: Streptococcus pneumoniae, SV1SP3.
Text: as §1

The next assay has as its system S. aureus UC-76 SA-1. To be noted: Staphylococcus aureus, UC76.
Text: as §1

As a reminder, the MIC90 is an inhibitory concentration at the 90% level, which refers to growth in some studies and to a panel of isolates in others. High values mean weaker potency, low ones greater potency. `CCCN1C(=O)Cc2cc(N3C[C@H](C(=O)NC)OC3=O)ccc21` [Example 14, (R)-2-oxo-3-(2-oxo-1-propyl-2,3-dihydro-1H-indol-5-yl)-oxazolidine-5-carboxylic acid methylamide]: the MIC90 in the assay with E.faecalis MGH-2 EF 1-1, in the assay on S. pneumoniae SV1 SP-3 and in the assay on S. aureus UC-76 SA-1 was 4 µg/mL (≈ 12.6 µM) throughout.

Take `CC(C)N1C(=O)Cc2cc(N3C[C@H](C(N)=O)OC3=O)ccc21` [Example 8]: the MIC90 with E.faecalis MGH-2 EF 1-1, in the assay with S. pneumoniae SV1 SP-3 and against S. aureus UC-76 SA-1 was 4 µg/mL (≈ 13.2 µM) throughout.

Regarding `CC(CF)N1C(=O)Cc2cc(N3C[C@H](C(N)=O)OC3=O)ccc21` (stereo partly drawn) [Example 19, (R)-3-[1-(2-fluoro-1-methyl-ethyl)-2-oxo-2,3-dihydro-1H-indol-5-yl]-2-oxo-oxazolidine-5-carboxylic acid amide], the MIC90 against E.faecalis MGH-2 EF 1-1, against S. pneumoniae SV1 SP-3 and in the assay with S. aureus UC-76 SA-1 was 4 µg/mL (≈ 12.4 µM) in each case.

With `CN1C(=O)Cc2cc(N3C[C@H](C(N)=O)OC3=O)ccc21` [Example 1, (5R)-3-(1-methyl-2-oxo-2,3-dihydro-1H-indol-5-yl)-2-oxo-oxazolidine-5-carboxylic acid amide], the MIC90 against E.faecalis MGH-2 EF 1-1 is 4 µg/mL (≈ 14.5 µM); against S. pneumoniae SV1 SP-3, 2 µg/mL (≈ 7.27 µM); with S. aureus UC-76 SA-1 it was 2 µg/mL (≈ 7.27 µM).

For `CCN1C(=O)Cc2cc(N3C[C@H](C(N)=O)OC3=O)ccc21` [Example 4, (5R)-3-(1-ethyl-2-oxo-2,3-dihydro-1H-indol-5-yl)-2-oxo-oxazolidine-5-carboxylic acid amide], the results for the MIC90 against E.faecalis MGH-2 EF 1-1, in the assay with S. pneumoniae SV1 SP-3 and in the assay on S. aureus UC-76 SA-1 were 4 µg/mL (≈ 13.8 µM), 2 µg/mL (≈ 6.91 µM) and 4 µg/mL (≈ 13.8 µM), respectively.

As for `CCCN1C(=O)Cc2cc(N3C[C@H](C(N)=O)OC3=O)ccc21` [Example 13, (R)-2-oxo-3-(2-oxo-1-propyl-2,3-dihydro-1H-indol-5-yl)-oxazolidine-5-carboxylic acid amide], the MIC90 was 8 µg/mL (≈ 26.4 µM) against E.faecalis MGH-2 EF 1-1, 8 µg/mL (≈ 26.4 µM) against S. pneumoniae SV1 SP-3 and 4 µg/mL (≈ 13.2 µM) in the assay with S. aureus UC-76 SA-1.

Take `CNC(=O)[C@H]1CN(c2ccc3c(c2)CC(=O)N3C)C(=O)O1` [Example 2]: the MIC90 stood at 4 µg/mL (≈ 13.8 µM) in the assay with E.faecalis MGH-2 EF 1-1, 2 µg/mL (≈ 6.91 µM) against S. pneumoniae SV1 SP-3 and 2 µg/mL (≈ 6.91 µM) in the assay with S. aureus UC-76 SA-1.

As to `NC(=O)[C@H]1CN(c2ccc3c(c2)CC(=O)N3C2CC2)C(=O)O1` [Example 11, (5R)-3-(1-cyclopropyl-2-oxo-2,3-dihydro-1H-indol-5-yl)-2-oxo-oxazolidine-5-carboxylic acid amide], the MIC90 was 16 µg/mL (≈ 53.1 µM) against E.faecalis MGH-2 EF 1-1, 8 µg/mL (≈ 26.6 µM) against S. pneumoniae SV1 SP-3 and 8 µg/mL (≈ 26.6 µM) in the assay on S. aureus UC-76 SA-1.

For `CNC(=O)[C@H]1CN(c2ccc3c(c2)CC(=O)N3C2CC2)C(=O)O1` [Example 12, (5R)-3-(1-cyclopropyl-2-oxo-2,3-dihydro-1H-indol-5-yl)-2-oxo-oxazolidine-5-carboxylic acid methylamide], the values for the MIC90 against E.faecalis MGH-2 EF 1-1, in the assay with S. pneumoniae SV1 SP-3 and against S. aureus UC-76 SA-1 were 16 µg/mL (≈ 50.7 µM), 8 µg/mL (≈ 25.4 µM) and 8 µg/mL (≈ 25.4 µM), respectively.

Take `NC(=O)[C@H]1CN(c2ccc3c(c2)CC(=O)N3C2CCC2)C(=O)O1` [Example 22, (R)-3-(1-cyclobutyl-2-oxo-2,3-dihydro-1H-indol-5-yl)-2-oxo-oxazolidine-5-carboxylic acid amide]: the MIC90 in the assay with E.faecalis MGH-2 EF 1-1 was 64 µg/mL (≈ 203 µM); in the assay on S. pneumoniae SV1 SP-3, 64 µg/mL (≈ 203 µM); against S. aureus UC-76 SA-1, 32 µg/mL (≈ 101 µM).

For `CCN1C(=O)Cc2cc(N3C[C@H](C(=O)NC)OC3=O)ccc21` [Example 5], the MIC90 in the assay on E.faecalis MGH-2 EF 1-1, with S. pneumoniae SV1 SP-3 and in the assay with S. aureus UC-76 SA-1 was 4 µg/mL (≈ 13.2 µM) each time.

Consider `CNC(=O)[C@H]1CN(c2ccc3c(c2)CC(=O)N3CC(C)C)C(=O)O1` [Example 21, (R)-3-(1-isobutyl-2-oxo-2,3-dihydro-1H-indol-5-yl)-2-oxo-oxazolidine-5-carboxylic acid methylamide], for which the MIC90 with E.faecalis MGH-2 EF 1-1, in the assay with S. pneumoniae SV1 SP-3 and in the assay with S. aureus UC-76 SA-1 was 64 µg/mL (≈ 193 µM) in each case.

Consider `CCC(C)N1C(=O)Cc2cc(N3C[C@H](C(N)=O)OC3=O)ccc21` (stereo partly drawn) [Example 17, (R)-3-(1-sec-butyl-2-oxo-2,3-dihydro-1H-indol-5-yl)-2-oxo-oxazolidine-5-carboxylic acid amide], for which the MIC90 is 8 µg/mL (≈ 25.2 µM) in the assay with E.faecalis MGH-2 EF 1-1, 8 µg/mL (≈ 25.2 µM) in the assay on S. pneumoniae SV1 SP-3 and 4 µg/mL (≈ 12.6 µM) against S. aureus UC-76 SA-1.

As for `CNC(=O)[C@H]1CN(c2ccc3c(c2)CC(=O)N3C(C)C)C(=O)O1` [Example 9, (5R)-3-(1-isopropyl-2-oxo-2,3-dihydro-1H-indol-5-yl)-2-oxo-oxazolidine-5-carboxylic acid methylamide], the MIC90 against E.faecalis MGH-2 EF 1-1 was determined as 8 µg/mL (≈ 25.2 µM); with S. pneumoniae SV1 SP-3, 4 µg/mL (≈ 12.6 µM); against S. aureus UC-76 SA-1 it was 8 µg/mL (≈ 25.2 µM).

Turning to `CC(C)N1C(=O)Cc2cc(N3C[C@H](C(N)=O)OC3=O)cc(F)c21` [Example 10, (5R)-3-(7-fluoro-1-isopropyl-2-oxo-2,3-dihydro-1H-indol-5-yl)-2-oxo-oxazolidine-5-carboxylic acid amide], the MIC90 against E.faecalis MGH-2 EF 1-1, with S. pneumoniae SV1 SP-3 and in the assay with S. aureus UC-76 SA-1 was 4 µg/mL (≈ 12.4 µM) throughout.

As for `CNC(=O)[C@H]1CN(c2ccc3c(c2)CC(=O)N3C2CCC2)C(=O)O1` [Example 23, (R)-3-(1-cyclobutyl-2-oxo-2,3-dihydro-1H-indol-5-yl)-2-oxo-oxazolidine-5-carboxylic acid methylamide], the figures for the MIC90 with E.faecalis MGH-2 EF 1-1, with S. pneumoniae SV1 SP-3 and with S. aureus UC-76 SA-1 were 64 µg/mL (≈ 194 µM), 32 µg/mL (≈ 97.2 µM) and 16 µg/mL (≈ 48.6 µM), respectively.

On to `CN1C(=O)Cc2cc(N3C[C@H](C(N)=O)OC3=O)cc(F)c21` [Example 3, (5R)-3-(7-fluoro-1-methyl-2-oxo-2,3-dihydro-1H-indol-5-yl)-2-oxo-oxazolidine-5-carboxylic acid amide], for which the MIC90 against E.faecalis MGH-2 EF 1-1, against S. pneumoniae SV1 SP-3 and in the assay on S. aureus UC-76 SA-1 was 16 µg/mL (≈ 54.6 µM) each time.

As for `NC(=O)[C@H]1CN(c2ccc3c(c2)CC(=O)N3CCF)C(=O)O1` [Example 6], the MIC90 against E.faecalis MGH-2 EF 1-1, in the assay with S. pneumoniae SV1 SP-3 and against S. aureus UC-76 SA-1 was 4 µg/mL (≈ 13 µM) in each case.

Turning to `CCC(C)N1C(=O)Cc2cc(N3C[C@H](C(=O)NC)OC3=O)ccc21` (stereo partly drawn) [Example 18, (R)-3-(1-sec-butyl-2-oxo-2,3-dihydro-1H-indol-5-yl)-2-oxo-oxazolidine-5-carboxylic acid methylamide], the MIC90 in the assay on E.faecalis MGH-2 EF 1-1, with S. pneumoniae SV1 SP-3 and with S. aureus UC-76 SA-1 was 8 µg/mL (≈ 24.1 µM) throughout.

On to `CCCN1C(=O)Cc2cc(N3C[C@H](C(N)=O)OC3=O)cc(F)c21` [Example 15, (R)-3-(7-fluoro-2-oxo-1-propyl-2,3-dihydro-1H-indol-5-yl)-2-oxo-oxazolidine-5-carboxylic acid amide], for which the MIC90 turned out to be 8 µg/mL (≈ 24.9 µM) in the assay on E.faecalis MGH-2 EF 1-1, 8 µg/mL (≈ 24.9 µM) against S. pneumoniae SV1 SP-3 and 4 µg/mL (≈ 12.4 µM) in the assay with S. aureus UC-76 SA-1.

As for `CC(C)CN1C(=O)Cc2cc(N3C[C@H](C(N)=O)OC3=O)ccc21` [Example 20, (R)-3-(1-Isobutyl-2-oxo-2,3-dihydro-1H-indol-5-yl)-2-oxo-oxazolidine-5-carboxylic acid amide], the MIC90 in the assay with E.faecalis MGH-2 EF 1-1, against S. pneumoniae SV1 SP-3 and against S. aureus UC-76 SA-1 was 64 µg/mL (≈ 202 µM) throughout.

On to `CNC(=O)[C@H]1CN(c2ccc3c(c2)CC(=O)N3CCF)C(=O)O1` [Example 7], for which the MIC90 in the assay on E.faecalis MGH-2 EF 1-1, with S. pneumoniae SV1 SP-3 and in the assay on S. aureus UC-76 SA-1 was 4 µg/mL (≈ 12.4 µM) in each case.

For the compound `CC(C)(C)N1C(=O)Cc2cc(N3C[C@H](C(N)=O)OC3=O)ccc21` [Example 16], the MIC90 against E.faecalis MGH-2 EF 1-1 was 16 µg/mL (≈ 50.4 µM); in the assay with S. pneumoniae SV1 SP-3, 16 µg/mL (≈ 50.4 µM); in the assay on S. aureus UC-76 SA-1, 8 µg/mL (≈ 25.2 µM).
